Experimental data as given in PMC9080489, “Synthesis and biological evaluation of 2-aryl-benzimidazole derivatives of dehydroabietic acid as novel tubulin polymerization inhibitors” (RSC Advances, 2018).

Tests used:
SMMC-7721 cells [1] = test: Annexin V-FITC/PI dual staining assay (apoptosis); assay type: cell-based, human; settings: highest concentration 2.0 μM, 24 h; control 10.12%
Protocol: In order to investigate whether compound 6j could induce cell apoptosis, SMMC-7721 cells treated with different concentrations of compound 6j were subjected to Annexin V-FITC/propidium iodide (PI) dual staining followed by flow cytometry assay.
Apoptosis was discriminated with the Annexin V-FITC/PI dual staining assay. SMMC-7721 cells were seeded at 1 × 10^5 cells per well in 10% fetal calf serum (FBS)-DMEM into six-well plates and treated with or without compound 6j for 24 h. The cells were detached with 0.25% trypsin, washed twice with ice-cold PBS and then resuspended in 500 μL of 1× binding buffer (0.1 M Hepes/NaOH (pH 7.4), 1.4 M NaCl, 25 mM CaCl2). The solution was transferred into 5 mL culture tubes, and 5 μL of Annexin V-FITC (BD, Pharmingen) and 5 μL of PI were added to each tube. The cells were gently vortexed, and incubated for 30 min at 25 °C in the dark. The analysis was performed on a flow cytometry (Becton-Dickinson FACSCalibur, New York, USA).

[2] = system: human normal hepatocyte cell line (QSG-7701); test: MTT cytotoxic assay, QSG-7701; assay type: cell-based; settings: QSG7701, 48 h exposure
Protocol: The in vitro antiproliferative activity of DAA derivatives (1–5, 6a–k, 7a–k) were evaluated by MTT assay against human hepatocarcinoma cell line (SMMC-7721), human breast cancer cell line (MDA-MB-231), human cervical carcinoma cell line (HeLa), mouse colon cancer cell line (CT-26) and human normal hepatocyte cell line (QSG-7701). Nocodazole was co-assayed as the positive control and DMEM culture medium containing 0.1% DMSO was used as negative control. The results of the tested compounds expressed as IC50 values (concentration required to inhibit tumor cell proliferation by 50%) were presented in Table 1.
The human hepatocarcinoma cell line (SMMC-7721), human breast cancer cell line (MDA-MB-231), human cervical carcinoma cell line (HeLa), mouse colon cancer cell line (CT-26) and human normal hepatocyte cells (QSG-7701) used in this study were all obtained from Keygene Biotech., China. These cell lines were maintained in DMEM medium supplemented with 10% heat-inactivated fetal bovine serum in a humidified atmosphere of 5% CO2 at 37 °C.
The in vitro cytotoxic activities of the benzimidazole derivatives of dehydroabietic acid were evaluated against tested cell lines via the MTT colorimetric method. Briefly, different tumor cells were grown in DMEM medium supplemented with 10% fetal bovine serum, penicillin (100 U mL^−1), and streptomycin (50 μg mL^−1). Cells were harvested at log phase of growth and seeded in 96-well plates (100 μL per well at a density of 2 × 10^5 cells mL^−1). After 24 h incubation at 37 °C and 5% CO2 to allow cell attachment, cultures were exposed to various concentrations of the isolated compounds for 48 h. Finally, MTT solution (2.5 mg mL^−1 in PBS) was added (40 μL per well). Plates were further incubated for 4 h at 37 °C, and the formazan crystals formed were dissolved by adding 150 μL per well of DMSO. Absorption at 570 nm was measured with an ELISA plate reader. The results were expressed as IC50 values with standard deviations, which was defined as the concentration at which 50% survival of cells was discerned. Nocodazole was co-assayed as positive control.

SMMC-7721 cells [3] = test: ROS generation assay (DCFH-DA); assay type: cell-based, human; settings: 0.2, 0.5, 1 and 2 μM, 24 h
Protocol: Reactive oxygen species (ROS) are highly harmful elements to cells as they exert oxidative stress and finally cause cellular damage. Excessive ROS generation renders cells vulnerable to apoptosis.[39] To determine whether compound 6j triggers ROS generation in SMMC-7721 cells to induce apoptosis, the cells were treated with different concentrations (0, 0.2, 0.5, 1 and 2 μM) of compound 6j for 24 h, and the ROS generation was evaluated using the fluorescent probe 2,7-dichlorofluorescein diacetate (DCF-DA) by fluorescence microscopy. […] This phenomenon implied that the increment of ROS might play an important role as an early mediator in compound 6j-induced apoptosis.
ROS generation assay was performed by using the reactive oxygen species assay kit (Beyotime Biotech., China). Intracellular ROS generation was tested through dichlorodihydro fluorescein diacetate (DCFH-DA) assay. DCFH-DA is taken up by SMMC-7721 cells, and then activated by esterase-mediated cleavage of acetate to form dichlorodihydro fluorescein (DCFH), which is trapped in the cells. DCFH is converted to fluorescein DCF in the presence of ROS. SMMC-7721 cells were seeded in six-well plates and incubated with different concentrations of compound 6j for 24 h. […] Immediately after light exposure, cell images were acquired through an inverted fluorescence microscope (Olympus 1X71 Inverted System Microscope, Olympus, Japan).

SMMC-7721 cells [4] = test: Wound healing assay (cell migration); assay type: cell-based, human; settings: 0.2 and 0.5 μM, up to 48 h
Description: Metastasis is a multistep process involving cancer cell motility and invasion which represents a key difficulty for cancer therapy. Thus, the inhibition of metastasis is vital for efficient cancer treatment. Microtubule plays an important role in cell motility and migration. As compound 6j inhibits tubulin polymerization, the capacity of migration inhibition was also investigated through wound healing assay.[45] In this assay, standard scratches (wounds) were made in confluent monolayers of SMMC-7721 cells and incubated with different concentrations (0, 0.1, 0.2 and 0.5 μM) of compound 6j. The migration of SMMC-7721 cells was recorded by microscopic observations at 0, 24 and 48 h.
SMMC-7721 cells (5 × 10^5 cells per well) were grown in a 12-well plate for 24 h. Scratches were made in confluent monolayers using 200 μL pipette tip. Then, wounds were washed twice with PBS to remove non-adherent cell debris. The media containing different concentrations (0, 0.1, 0.2 and 0.5 μM) of compound 6j were added to the corresponding wells. Cells which migrated across the wound area were photographed under the phase contrast microscope (Olympus 1X71 Inverted System Microscope, Olympus, Japan) after 24 and 48 h treatment.

[5] = system: intracellular microtubule system of SMMC-7721 cells; test: Immunofluorescence staining of microtubule network; assay type: cell-based, human; settings: 24 h (Fig. 4 legend)
Protocol: Since the tubulin polymerization inhibitory effect of compound 6j has been verified, we subsequently performed the immunofluorescent staining assay to observe its effect on the intracellular microtubule system of SMMC-7721 cells.
[…] After being washed with phosphate buffer solution (PBS) and fixed in 4% paraformaldehyde for 15 min, the cells were permeabilized with 0.5% Triton X-100 for 15 min and blocked for 30 min with 10% goat serum. Then, the cells were incubated with mouse anti-tubulin antibody (ZSGB-Bio, China) at 4 °C overnight and incubated with goat anti-mouse IgG/Alexa-Fluor 488 antibody (ZSGB-Bio, China) at room temperature for 1 h. After the nuclei were stained with Hoechst 33258 (Beyotime Biotech., China) in the dark at room temperature for 30 min, the samples were immediately visualized on a Zeiss LSM 570 laser scanning confocal microscope (Carl Zeiss, Germany).

Compound: COC(=O)[C@]1(C)CCC[C@]2(C)c3cc(Br)c4nc(-c5ccc6[nH]ccc6c5)[nH]c4c3CCC12 (stereo partly drawn) [Compound 6j, Methyl 2′-(1H-indol-5-yl)-12-bromo-13,14-imidazolyl-deisopropyl-dehydroabietate]
- percentage of early and late apoptotic cells (SMMC-7721 cells [1]): 80.08%
- IC50 [2]: 5.82 ± 0.38 µM
- ROS generation (DCF green fluorescence) (SMMC-7721 cells [3]): significantly induced ROS generation
- wound healing (cell migration) (SMMC-7721 cells [4]): healing was strongly suppressed
- effect on the microtubule network ([5]; 0.5 μM): most microtubule networks disappeared
- effect on the microtubule network ([5]; 0.1–0.5 μM): the meshy microtubule networks shrank around the nuclei in a dose-dependent manner
